In patent publication US9962405B2, “Antiviral gel combination” (YEDITEPE UNIVERSITESI, priority 2013, dated 2018):

Experiments:
HSV-1 virus = settings: in vitro, vero cells; cited from earlier work
Herpes simplex virus = settings: topically applied on infected skin, animal studies; cited from earlier work
[1] = tested on: Herpes Simplex Type 1 virus; assay: Antiviral activity on HSV type 1 in Vero cells, cell viability by MTS, viral inhibition calculated; assay type: cell-based; settings: tested at 0.0005, 0.001 and 0.002%, HSV-1 dilutions 10^-2 to 10^-5
Protocol: Vero cells and Herpes Simplex Type 1 virus were used in order to observe the activity of the antiviral gel formulation; which is composed of a mixture of sodium pentaborate pentahydrate chlorhexidine and poloxamer; on Herpes Simplex Type 1 virus. Virus stock dilutions were prepared and used for the analysis. Five different concentrations were prepared from the main stock up to 10^−5 concentration and among these concentrations, the dilution of 10^−1 concentration was cancelled since no viable cell was observed. The other antiviral analyses were made at four different concentration values ranging from 10^−2 to 10^−5. Chlorhexidine was applied at three different concentrations: 0.0005-0.001-0.002%.

Vero cells = settings: chlorhexidine at 0.002%; known from reference [12]; cited from earlier work

Question: With [H]/N=C(\N/C(=N/[H])NCCCCCCNC(=N)NC(=N)Nc1ccc(Cl)cc1)Nc1ccc(Cl)cc1 [chlorhexidine] as the molecule, how does the “inhibition of viral replication of HSV-1” value (HSV-1 virus) read?
Answer: The value was “inhibits viral replication”.

Question: And the “inhibition of virus proliferation and lesion formation” value (Herpes simplex virus)?
Answer: Its value is “inhibits the virus from proliferating and forming lesions”.

Question: And the “concentration of chlorhexidine alone at which the best antiviral activity was observed” value [1]?
Answer: Its value is 0.002%.

Question: And the cytotoxic effect (Vero cells)?
Answer: Its cytotoxic effect is “cytotoxic effect”.
